This is an account of results in US20250332113A1, “ADHESIVE PARTICLES FOR ACTIVE DELIVERY” (THE TRUSTEES OF THE UNIVERSITY OF PENNSYLVANIA, priority 2022, published 2025).

The data set in a line: Release profile of fluorescent molecules from PEG-PLGA double-emulsion hairy microparticles. The format is physicochemical. The settings on record: 0.1 M PBS buffer pH 7.4, 37° C., fluorescence in supernatant. From the text: FIGS. 2A-2B. Simulated drug releasing profile from PEG-PLGA double emulsions-based hairy microparticles using two different fluorescent molecules. (FIG. 2A) Loaded Alexa Fluor® 647 (1025.2 g/mol) and (FIG. 2B) GFP (27 kDa) were released depending on the time and detected in supernatant.
To test drug encapsulating and releasing properties, we use two different sizes of fluorescent molecules (Alexa Fluor® 647, 1025.2 g/mol and GFP, 27 kDa). We load these molecules into most inner phase and generate double emulsions through two-step sequential emulsification. After fully drying of DCM, hairy microparticles are collected and washed 3 times by centrifugation at 3000 rcf for 1 min with deionized water. To determine the release profile, we place a sample in 0.1 M PBS buffer (pH=7.4, 5 ml total) at 37° C. and monitor the release of the fluorescent molecules. The fluorescent intensity in supernatant are measured using a BioTek plate reader. FIGS. 2A-2B show the release profile of both Alexa Fluor 647 and GFP. Based on the fluorescent intensity of end point, about 22-26% of Alexa Fluor 647 and 19-35% of GFP are released (compared to the amount injected into the emulsions) from microcapsules.

Turning to Alexa Fluor 647, the “released from microcapsules, compared to the amount injected into the emulsions, based on fluorescent intensity of end point” value is on record as 22-26%.
